Test results reported in article PMC3606385 (PLoS ONE, 2013).
Like-named read-outs stand apart in the source and are kept apart here.

Key:
Human 11β-HSD1 [1] = target: T1, Human 11β-HSD1 (Homo sapiens, UniProt P28845); assay: 11β-HSD1 assay in intact CHOP cells transfected with human HSD11B1; format: cell-based; conditions: for Human 11β-HSD1 Potency to Curcumin (fold): CHOP cells transfected with human HSD11B1, relative to curcumin
T1 construct: expressed in transfected cells; host or cells: CHOP cells (transient, FuGENE)
T1 sequence (P28845 whole entry): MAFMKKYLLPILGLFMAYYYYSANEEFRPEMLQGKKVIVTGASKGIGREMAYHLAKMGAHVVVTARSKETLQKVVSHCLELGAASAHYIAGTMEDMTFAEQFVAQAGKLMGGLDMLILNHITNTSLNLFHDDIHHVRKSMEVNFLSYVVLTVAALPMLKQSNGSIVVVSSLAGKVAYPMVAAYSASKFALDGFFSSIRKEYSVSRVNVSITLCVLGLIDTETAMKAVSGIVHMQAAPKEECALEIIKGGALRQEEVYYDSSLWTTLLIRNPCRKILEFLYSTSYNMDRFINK
Description: (§1) An expression plasmid was constructed to express human 11β-HSD1 (HSD11B1) cDNA in pcDNA I expression vector from its original human HSD11B1 vector (pBluescriptSK+).[15]. The Escherichia coli transformants carrying an insert were selected by colony hybridization, and a clone with the insert in the correct orientation relative to the vector T7 promoter was identified by restriction mapping. All transfections were carried out on 80% confluent cultures in 12-well plates. Aliquots of 1 µg HSD11B1 pcDNA I were transfected into mammalian CHOP cells with the FuGENE Transfection Reagent (Roche) according to manufacturer's protocol. Cells were allowed to grow for 24 hours in media containing 10% fetal bovine serum. Then media were removed and cells were harvested for 11β-HSD1 activity assay.
(§2) 11β-HSD1 reductase activity was performed in intact cells using endogenous cofactor NADPH as described previously. […] 25×10^3 cells were added to each tube to initiate the reaction and the reaction mixture was incubated for up to 2 hrs, during which the reaction is within the linear range. At the end of reaction, the reaction was stopped by adding 2 ml ice-cold ether. The steroids were extracted, and the organic layer was dried under nitrogen. The steroids were separated chromatographically on thin layer plates in chloroform and methanol (90∶10, v/v), and the radioactivity was measured using a scanning radiometer (System AR2000, Bioscan Inc., Washington, DC) as described previously. The percentage conversion of 11DHC to CORT or cortisone to cortisol was calculated by dividing the radioactive counts identified as 11-OH-steroids by the total counts.
(§3) The IC50 was determined by adding different concentrations of each compound in the 11β-HSD1 or 11β-HSD2 reaction as described. The mode of inhibition was assayed by adding various concentrations of steroid substrates in the presence of an inhibitor as described.

Rat 11β-HSD1 [2] = target: T2, Rat 11β-HSD1 (Rattus norvegicus, UniProt P16232); assay: 11β-HSD1 assay in intact rat Leydig cells; format: cell-based; conditions: for Rat 11β-HSD1 Potency to Curcumin (fold) / IC50: intact rat Leydig cells; for Rat 11β-HSD1 Potency to Curcumin (fold): relative to curcumin; for IC50: read-out: Rat 11β-HSD1 IC50 (nM) in Leydig cells
T2 construct: endogenous in cells; host or cells: primary adult Sprague-Dawley rat Leydig cells
T2 sequence (P16232 whole entry): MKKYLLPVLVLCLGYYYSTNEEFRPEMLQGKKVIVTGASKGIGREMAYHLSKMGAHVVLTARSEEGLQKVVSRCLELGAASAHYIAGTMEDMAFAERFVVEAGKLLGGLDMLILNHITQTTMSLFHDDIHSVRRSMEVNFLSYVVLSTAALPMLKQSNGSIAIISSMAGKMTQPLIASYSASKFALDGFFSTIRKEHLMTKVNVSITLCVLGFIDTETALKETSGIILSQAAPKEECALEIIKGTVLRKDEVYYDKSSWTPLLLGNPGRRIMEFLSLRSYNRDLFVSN
Description: Rat Leydig cells contain the highest 11β-HSD1 activity in all cell types of rat tissues, and were used for rat 11β-HSD1 enzyme sources. Purified rat Leydig cells were obtained from 90-day-old Sprague-Dawley rats by collagenase digestion of the testes followed by Percoll density centrifugation of the cell suspension, according to the previously described method. […] The purity of cell fractions was evaluated by histochemical staining for 3β-hydroxysteroid dehydrogenase activity with […] etiocholanolone as the steroid substrate.
as §2, §3

Rat 11β-HSD2 = target: T3, Rat 11β-HSD2 (Rattus norvegicus, UniProt P50233); assay: 11β-HSD2 assay in rat kidney microsomes; format: biochemical; conditions: for IC50: rat kidney microsomes
T3 construct: from tissue; host or cells: rat kidney microsomes
T3 sequence (P50233 1-400): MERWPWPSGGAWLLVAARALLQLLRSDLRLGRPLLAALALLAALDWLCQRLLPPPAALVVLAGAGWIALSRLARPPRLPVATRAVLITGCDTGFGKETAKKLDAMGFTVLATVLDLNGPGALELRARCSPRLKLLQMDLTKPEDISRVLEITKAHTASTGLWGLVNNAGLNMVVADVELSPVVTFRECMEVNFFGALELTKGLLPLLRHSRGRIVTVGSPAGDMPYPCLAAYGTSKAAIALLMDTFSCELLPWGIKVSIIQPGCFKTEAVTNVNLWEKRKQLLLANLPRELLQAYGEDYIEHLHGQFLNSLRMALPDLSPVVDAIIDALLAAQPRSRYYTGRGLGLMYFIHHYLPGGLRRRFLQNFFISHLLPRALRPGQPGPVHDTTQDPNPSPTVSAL
Description: (§4) Rats were euthanized by CO2, and livers, testes and kidneys were collected. Rat liver, testis and kidney microsomes were prepared as described previously. In brief, rat liver and kidney were homogenized in […] PBS buffer containing 0.25 M sucrose, and nuclei and large cell debris were removed by centrifugation at 1500× g for 10 min. The post-nuclear supernatants were centrifuged twice at 105,000×g, the resultant microsomal pellets were resuspended. Protein contents were measured by Bio-Rad Dye Reagent Concentrate (Cat.#500-0006). Microsomes were used for measurement of 11β-HSD1 and 11β-HSD2 activities.
The rat and human kidney microsomes were used for 11β-HSD2 sources. 11β-HSD2 activity was performed in the microsome according to a previously described method. […] 8 (rat) or 20 (human) µg kidney microsomes were added to each tube to initiate the reaction and the reaction mixture was incubated for up to 3 hrs, during which the reaction is within the linear range. The rest procedure was similar to 11β-HSD1 assay. The percentage conversion of CORT to 11DHC or cortisol to cortisone was calculated by dividing the radioactive counts identified as 11keto-steroids by the total counts.
as §3

Human 11β-HSD2 = target: T4, Human 11β-HSD2 (Homo sapiens, UniProt P80365); assay: 11β-HSD2 assay in human kidney microsomes; format: biochemical; conditions: for IC50: human kidney microsomes, read-out: IC50 (nM) Human 11β-HSD2
T4 construct: tissue Gentest (Woburn, MA); host or cells: human kidney microsomes
T4 sequence (P80365 1-405): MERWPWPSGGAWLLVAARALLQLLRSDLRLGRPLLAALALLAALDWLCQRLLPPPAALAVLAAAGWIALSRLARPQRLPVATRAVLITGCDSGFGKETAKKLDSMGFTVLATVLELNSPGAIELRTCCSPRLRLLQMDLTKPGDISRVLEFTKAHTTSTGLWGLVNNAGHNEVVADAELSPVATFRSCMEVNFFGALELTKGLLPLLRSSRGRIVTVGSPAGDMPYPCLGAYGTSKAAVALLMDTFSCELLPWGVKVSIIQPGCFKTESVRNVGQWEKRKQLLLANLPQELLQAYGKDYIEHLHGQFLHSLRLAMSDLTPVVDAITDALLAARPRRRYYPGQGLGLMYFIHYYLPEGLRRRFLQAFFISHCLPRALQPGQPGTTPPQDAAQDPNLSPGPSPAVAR
Description: The rat and human kidney microsomes were used for 11β-HSD2 sources. 11β-HSD2 activity was performed in the microsome according to a previously described method. In brief, the assay tubes contained 25 nM substrate CORT (for rat) or cortisol (for human), spiked with 30,000 cpm their respective ^3H-11β-hydroxyl steroid, 0.2 mM NAD+ and 0.1 mM DTT in the PBS buffer. 8 (rat) or 20 (human) µg kidney microsomes were added to each tube to initiate the reaction and the reaction mixture was incubated for up to 3 hrs, during which the reaction is within the linear range. The rest procedure was similar to 11β-HSD1 assay. The percentage conversion of CORT to 11DHC or cortisol to cortisone was calculated by dividing the radioactive counts identified as 11keto-steroids by the total counts.
as §3

Human 11β-HSD1 [3] = target: T1, Human 11β-HSD1; assay: 11β-HSD1 assay in microsomes from CHOP cells transfected with human HSD11B1; format: biochemical; conditions: microsomes, screening
Description: as §1
(§5) The rat testis and liver or human liver microsomes were used for 11β-HSD1 assay. 11β-HSD1 activity was performed in the microsome according to a previously described method. […] 2 µg microsomes were added to each tube to initiate the reaction and the reaction mixture was incubated for up to 2 hrs, during which the reaction is within the linear range. The rest procedure was similar to 11β-HSD1 assay in intact cells.
as §3

Rat 11β-HSD1 [4] = target: T2, Rat 11β-HSD1; assay: 11β-HSD1 assay in adult rat testis microsomes; format: biochemical; conditions: microsomes, screening
Description: as §4, §5, §3

[5] = CHOP cells transfected with human HSD11B1, read-out: Human 11β-HSD1 IC50 (nM) in CHOP cells

| SMILES | Human 11β-HSD1 Potency to Curcumin (fold) (Human 11β-HSD1 [1]) | IC50 (Human 11β-HSD1 [1]; [5]) [nM] | Rat 11β-HSD1 Potency to Curcumin (fold) (Rat 11β-HSD1 [2]) | IC50 (Rat 11β-HSD1 [2]) [nM] | IC50 (Rat 11β-HSD2) [nM] | IC50 (Human 11β-HSD2) [nM] | Inhibition of rat 11β-HSD2 at 100 µM (Rat 11β-HSD2) | Inhibition of human 11β-HSD2 at 100 µM (Human 11β-HSD2) | Inhibition of human 11β-HSD1 at 100 μM (Human 11β-HSD1 [1]; 100 μM, intact cells) | Inhibition of rat 11β-HSD1 at 100 μM (Rat 11β-HSD1 [2]; 100 μM, intact cells) | IC50 (Human 11β-HSD1 [1]; intact CHOP cells transfected with human HSD11B1, read-out: IC50 human 11β-HSD1 in intact cells) [nM] | Inhibitory effect against human 11β-HSD1 in nutraceutical screen (Human 11β-HSD1 [3]) | Inhibitory effect against rat 11β-HSD1 in nutraceutical screen (Rat 11β-HSD1 [4]) |
| --- | --- | --- | --- | --- | --- | --- | --- | --- | --- | --- | --- | --- | --- |
| Cc1ccsc1/C=C/C(=O)/C=C/c1sccc1C [compound 4, (1E,4E)-1,5-bis(3-methylthiophen-2-yl) penta-1,4-dien-3-one] | 12.54 | 183 | 50.75 | 114 | > 100000 | 19600 | – | – | – | – | – | – | – |
| O=C1/C(=C/c2ccc(Br)o2)CC/C1=C\c1ccc(Br)o1 [compound 7] | 1.73 | 1330 | 1.85 | 3130 | > 100000 | > 100000 | – | – | – | – | – | – | – |
| COc1ccc2cc3[n+](cc2c1OC)CCc1cc2c(cc1-3)OCO2 [berberine] | – | – | – | – | – | – | – | – | – | – | – | only curcumin (compound 1) showed inhibitory effects | only curcumin (compound 1) showed inhibitory effects |
| COc1ccc(-c2oc3c(CC=C(C)C)c(O[C@@H]4O[C@H](CO)[C@@H](O)[C@H](O)[C@H]4O)cc(O)c3c(=O)c2O[C@@H]2O[C@@H](C)[C@H](O)[C@@H](O)[C@H]2O)cc1 [icariin] | – | – | – | – | – | – | – | – | – | – | – | only curcumin (compound 1) showed inhibitory effects | only curcumin (compound 1) showed inhibitory effects |
| Cc1ccsc1/C=C1\CC/C(=C\c2sccc2C)C1=O [compound 9, (1E,4E)-1,5-bis(3-methylthiophen-2-yl) cyclopentanone] | – | > 100000 | – | > 100000 | > 100000 | > 100000 | – | – | did not inhibit | did not inhibit | – | – | – |
| O=C(/C=C/c1ccc(Br)o1)/C=C/c1ccc(Br)o1 [compound 2] | 2.31 | 995 | 1.38 | 4210 | > 100000 | > 100000 | – | – | – | – | – | – | – |

Now from value to compound, other results behind:

| Human 11β-HSD1 Potency to Curcumin (fold) (Human 11β-HSD1 [1]) | IC50 (Human 11β-HSD1 [1]; [5]) [nM] | Rat 11β-HSD1 Potency to Curcumin (fold) (Rat 11β-HSD1 [2]) | IC50 (Rat 11β-HSD1 [2]) [nM] | IC50 (Rat 11β-HSD2) [nM] | IC50 (Human 11β-HSD2) [nM] | Inhibition of rat 11β-HSD2 at 100 µM (Rat 11β-HSD2) | Inhibition of human 11β-HSD2 at 100 µM (Human 11β-HSD2) | Inhibition of human 11β-HSD1 at 100 μM (Human 11β-HSD1 [1]; 100 μM, intact cells) | Inhibition of rat 11β-HSD1 at 100 μM (Rat 11β-HSD1 [2]; 100 μM, intact cells) | IC50 (Human 11β-HSD1 [1]; intact CHOP cells transfected with human HSD11B1, read-out: IC50 human 11β-HSD1 in intact cells) [nM] | SMILES | Inhibitory effect against human 11β-HSD1 in nutraceutical screen (Human 11β-HSD1 [3]) | Inhibitory effect against rat 11β-HSD1 in nutraceutical screen (Rat 11β-HSD1 [4]) |
| --- | --- | --- | --- | --- | --- | --- | --- | --- | --- | --- | --- | --- | --- |
| 20.68 | 111 | 2.17 | 2670 | > 100000 | > 100000 | did not inhibit | did not inhibit | – | – | – | Cc1ccc(/C=C2\CC/C(=C\c3ccc(C)s3)C2=O)s1 [compound 8] | – | – |
| 0.50 | 4590 | 0.48 | 11900 | > 100000 | > 100000 | – | – | – | – | – | Cc1ccc(/C=C2\CCC/C(=C\c3ccc(C)s3)C2=O)s1 [compound 13] | – | – |
| 1.09 | 2100 | 0.49 | 11800 | > 100000 | > 100000 | – | – | – | – | – | Cn1cccc1/C=C1\CCC/C(=C\c2cccn2C)C1=O [compound 15] | – | – |
| 0.75 | 3050 | 0.54 | 10800 | > 100000 | > 100000 | – | – | – | – | – | O=C1/C(=C/c2ccc(Br)o2)CCC/C1=C\c1ccc(Br)o1 [compound 12] | – | – |
| – | > 100000 | – | > 100000 | > 100000 | > 100000 | – | – | – | – | – | Cn1cccc1/C=C1\CC/C(=C\c2cccn2C)C1=O [compound 10] | – | – |
| 0.64 | 3570 | 2.27 | 2550 | > 100000 | > 100000 | – | – | – | – | 3570 | O=C1/C(=C/c2cccs2)CCC/C1=C\c1cccs1 [compound 16, (1E,4E)-1,5-bis(thiophen-2-yl) cyclohexanone] | – | – |
| 10.20 | 225 | 5.51 | 1050 | > 100000 | > 100000 | did not inhibit | did not inhibit | – | – | – | O=C1/C(=C/c2cccs2)CC/C1=C\c1cccs1 [compound 11] | – | – |
